# In US11760761B2, “Methods and compositions for targeting PD-L1” (Aligos Therapeutics, Inc., priority 2020, dated 2023):
# pEC50, pIC50: −log10 of the molar value.
# What was measured:
# PDL1/PD1 = PDL1/PD1 (Homo sapiens (Human), UniProt Q9NZQ7); assay: PDL1/PD1 Binding Assay; conditions: PDL1-6xHis 0.3 nM, PD1-Fc-Avi-Biotin 2.5 nM, Acceptor/Donor beads; read-out: PD-1/PD-L1 PPI IC50
# Protocol: Compounds to be tested were serially diluted in DMSO, and further diluted in assay buffer (25 mM Hepes pH 7.4, 150 mM NaCl, 0.005% Tween 20, BSA 0.01%). Diluted compounds were added to the wells with final concentration of DMSO at 1%. PDL1-6×His protein was added to the wells, mixed well with compound. The plates were incubated for 30 min at room temperature. PD1-Fc-Avi-Biotin protein was added to the wells. Final concentration of PDL1 and PD1 protein is 0.3 nM and 2.5 nM, respectively. After a binding time of 30 min at room temperature, Anti-6×His Acceptor beads (final concentration 20 ug/ml) were added to the wells, and the incubation continued for 1 h. Streptavidin Donor beads (final concentration 20 ug/mL) were added at reduced light. The plates were sealed with foil and incubated in the dark for additional 1 h or overnight before reading on an Envision reader. The IC50 values were determined by fitting the curves using a four-parameter equation in Graphpad Prism 8.
# PDL1 = PDL1 (Homo sapiens (Human), UniProt Q9NZQ7); assay: PDL1 Dimerization Assay; type: biochemical; conditions: 0.5 nM PDL1-6xHis, 0.5 nM PDL1-strep; read-out: PD-L1 dimerization EC50
# Protocol: Serially diluted compounds were added to plate wells with the final concentration of DMASO at 1%. PDL1-6×His and PDL1-strep proteins were diluted in assay buffer (25 mM Hepes pH 7.4, 150 mM NaCl, 0.005% Tween 20, BSA 0.01%), added to the wells, and mixed well with the compounds. The plates were incubated for 2 h at room temperature. Anti-6×His Acceptor beads were added to the wells and the plates were further incubated for 1 h at room temperature. Strep-tactin Donor beads were added to the wells at reduced light. After additional 1 h incubation in the dark, the plates were read on a Envision reader. The final concentrations were 0.5 nM PDL1-6×His, 0.5 nM PDL1-strep, 20 ug/mL Anti-6×His Acceptor beads, 20 ug/mL Strep-tactin Donor beads. The EC50 values were determined by fitting the curves using a four-parameter equation in Graphpad Prism 8.
# PD-1/PD-L1 interaction = PD-1/PD-L1 interaction (Homo sapiens (Human), UniProt Q9NZQ7); assay: PD-1/PD-L1 NFAT Reporter Assay (Jurkat T cells / PD-L1 expressing CHO cells co-culture); type: cell-based; conditions: for Emax: Jurkat, maximum NFAT-activation level relative to the positive control (10 nM Atezolizumab); for pEC50: co-culture 6 hrs at 37° C., luciferase
# Protocol: Blocking the PD-1/PD-L1 interaction will release the inhibitory signal and results in TCR signaling and NFAT-mediated luciferase activity.
# CHO cells expressing surface-bound anti-CD3 antibodies and PD-L1 were first seeded overnight and treated with the compounds. Jurkat cells overexpressing PD-1 and a luciferase construct under NF-AT promoter were then immediately seeded on the monolayer of CHO cells. The co-culture was then incubated for 6 hrs at 37° C. Luciferase activity was assessed by adding the ONE-Glo reagent and measuring luminescence with a plate reader. EC50s values were determined from the fit of the dose-response curves Emax (%) corresponds to the maximum NFAT-activation level reached by a given compound relative to the positive control (10 nM Atezolizumab).
# Chain of PDL1 (Q9NZQ7 19-238): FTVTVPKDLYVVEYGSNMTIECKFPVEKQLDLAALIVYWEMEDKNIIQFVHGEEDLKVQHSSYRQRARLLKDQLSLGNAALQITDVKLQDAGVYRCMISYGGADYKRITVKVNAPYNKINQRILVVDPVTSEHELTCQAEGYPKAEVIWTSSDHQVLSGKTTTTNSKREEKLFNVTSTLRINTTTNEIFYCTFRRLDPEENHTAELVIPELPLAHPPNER
# Chain of PDL1 (Q9NZQ7 19-238): as above
# Chain of PD-1/PD-L1 interaction (Q9NZQ7 19-290): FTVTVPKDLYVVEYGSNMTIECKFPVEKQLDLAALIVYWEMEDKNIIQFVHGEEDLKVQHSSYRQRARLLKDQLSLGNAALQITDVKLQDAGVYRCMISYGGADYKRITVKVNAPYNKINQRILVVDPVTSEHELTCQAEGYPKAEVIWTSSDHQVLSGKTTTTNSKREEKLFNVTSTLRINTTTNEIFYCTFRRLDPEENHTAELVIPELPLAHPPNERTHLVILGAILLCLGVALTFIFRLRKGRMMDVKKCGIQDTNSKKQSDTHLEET
# Chain of PDL1/PD1 (Q9NZQ7 19-238): as the sequence (Q9NZQ7 19-238) above
pIC50 (PDL1/PD1),pEC50 (PDL1),Emax (PD-1/PD-L1 interaction) [%],pEC50 (PD-1/PD-L1 interaction),Compound
≥ 8.00,5.00 to 6.00,145,6.00 to 7.00,"COc1cc(-c2cccc(-c3cccc(-c4cnc(CN5CC6(CCC(=O)N6)C5)c(OC)n4)c3Cl)c2Cl)cc2c1[C@H](N1CC3(CCC(=O)N3)C1)CC2 (single isomer, unassigned) [Compound A-8]"
–,5.00 to 6.00,89,5.00 to 6.00,COc1cc(-c2cccc(-c3cccc(-c4cnc(CN5CC6(CCC(=O)N6)C5)c(OC)n4)c3Cl)c2Cl)cc2c1[C@@H](NCC(=O)O)CC2 [Compound B-1]
≥ 8.00,5.00 to 6.00,105,6.00 to 7.00,"COc1cc(-c2cccc(-c3cccc(-c4cnc(CN5CC(O)C5)c(OC)n4)c3Cl)c2Cl)cc2c1[C@@H](N1CC(O)C1)CC2 (single isomer, unassigned) [Compound A-9]"
–,5.00 to 6.00,107,6.00 to 7.00,"COc1cc(-c2cccc(-c3cccc(-c4cnc(CN5CC6(CCC(=O)N6)C5)c(OC)n4)c3Cl)c2Cl)cc2c1[C@H](NCC(=O)O)CC2 (single isomer, unassigned) [Compound B-2]"
